Measured values as given in ChEMBL document CHEMBL2029208 (Bioorg Med Chem, 2012).
≈ marks a conversion by molar mass, not a printed value.

These compounds were tested on Mycobacterium tuberculosis (assay: microbe, parasite or virus in culture). Settings: H37Ra.
Type: functional
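For IC50 in this document: recombinant enzyme with CMNPC substrate, fluorescence readout of 6-methoxy-2-naphthaldehyde formed over a 10 min reaction.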

Row | SMILES | MIC
1 | CCOCCOCCOc1ccc(NC(=O)NC23CC4CC(CC(C4)C2)C3)cc1 | 10 µg/mL (≈ 24.8 µM)
2 | C=C(CCCNC(=O)NC12CC3CC(CC(C3)C1)C2)OCCOCCOCC | > 79 µg/mL
3 | O=C(Nc1ccccc1)NC12CC3CC(CC(C3)C1)C2 | 14 µg/mL (≈ 51.8 µM)
4 | O=C(Nc1cccc(OC(F)(F)F)c1)NC12CC3CC(CC(C3)C1)C2 | 0.2 µg/mL (≈ 0.564 µM)
5 | O=C(Nc1ccccc1OCCCCN1CCOCC1)NC12CC3CC(CC(C3)C1)C2 | 21 µg/mL (≈ 49.1 µM)
6 | O=C(Nc1ccc(O)cc1)NC12CC3CC(CC(C3)C1)C2 | 57 µg/mL (≈ 199 µM)
7 | O=C(Nc1ccc(N2CCOCC2)cc1)NC12CC3CC(CC(C3)C1)C2 | 18 µg/mL (≈ 50.6 µM)
8 | O=C(NCCCCCOCCOCCOCc1ccccc1)NC12CC3CC(CC(C3)C1)C2 | 46 µg/mL (≈ 100 µM)
9 | O=C(NC12CC3CC(CC(C3)C1)C2)N[C@H]1CC[C@@H](Oc2ccc(C(F)(F)F)cn2)CC1 | 1.37 µg/mL (≈ 3.13 µM)
10 | O=C(Nc1cccc(OC(=O)c2ccccc2)c1)NC12CC3CC(CC(C3)C1)C2 | 2.4 µg/mL (≈ 6.15 µM)
11 | O=C(Nc1cccc(OC(F)F)c1)NC12CC3CC(CC(C3)C1)C2 | 0.8 µg/mL (≈ 2.38 µM)
12 | O=C(Nc1cccc(C(=O)OCc2ccccc2)c1)NC12CC3CC(CC(C3)C1)C2 | 0.3 µg/mL (≈ 0.742 µM)
13 | CC(=O)c1ccc(NC(=O)NC23CC4CC(CC(C4)C2)C3)cc1 | 2 µg/mL (≈ 6.4 µM)
14 | O=C(Nc1ccc(OC2CCOC2=O)cc1)NC12CC3CC(CC(C3)C1)C2 (stereo not given) | > 37 µg/mL
15 | O=C(NC12CC3CC(CC(C3)C1)C2)N[C@H]1CC[C@@H](OCc2c(F)cccc2F)CC1 | 42 µg/mL (≈ 100 µM)
16 | O=C(Nc1cccc(C(=O)N2CCOCC2)c1)NC12CC3CC(CC(C3)C1)C2 | > 77 µg/mL
17 | CCOCCOCCOCCCCCNC(=O)NC12CC3CC(CC(C3)C1)C2 | > 79 µg/mL
18 | O=C(NCC#CCOc1ccc(F)cc1)NC12CC3CC(CC(C3)C1)C2 | 0.7 µg/mL (≈ 1.96 µM)
19 | C[C@H](NC(=O)Cc1ccc(NC(=O)NC23CC4CC(CC(C4)C2)C3)cc1)C(=O)N[C@@H](Cc1c[nH]c2ccccc12)C(=O)O | 66 µg/mL (≈ 113 µM)
20 | COC(=O)Cc1ccc(NC(=O)NC23CC4CC(CC(C4)C2)C3)cc1 | 2.1 µg/mL (≈ 6.13 µM)
21 | COc1ccc(O[C@H]2CC[C@H](NC(=O)NC34CC5CC(CC(C5)C3)C4)CC2)cc1 | > 80 µg/mL
22 | CCCCOC(=O)CCCCCCCCCCCNC(=O)NC12CC3CC(CC(C3)C1)C2 | 5.61 µg/mL (≈ 12.5 µM)
23 | O=C(Nc1ccc(-n2ccnc2)cc1)NC12CC3CC(CC(C3)C1)C2 | > 44 µg/mL
24 | CO[C@H]1CC[C@H](NC(=O)NC23CC4CC(CC(C4)C2)C3)CC1 | > 61 µg/mL

Row | SMILES | MIC
25 | CO[C@H]1CC[C@@H](NC(=O)NC23CC4CC(CC(C4)C2)C3)CC1 | > 61 µg/mL
26 | COc1ccc(NC(=O)NC23CC4CC(CC(C4)C2)C3)cc1 | 1.88 µg/mL (≈ 6.26 µM)
27 | CN1CCN(CCCCOc2cccc(NC(=O)NC34CC5CC(CC(C5)C3)C4)c2)CC1 | 44 µg/mL (≈ 99.9 µM)
28 | COc1ccc(NC(=O)NC23CC4CC(CC(C4)C2)C3)cc1O | 32 µg/mL (≈ 101 µM)
29 | CCCCOCCCCCNC(=O)NC12CC3CC(CC(C3)C1)C2 | 2.1 µg/mL (≈ 6.24 µM)
30 | CCOCCOCCOc1cccc(NC(=O)NC23CC4CC(CC(C4)C2)C3)c1 | 2.52 µg/mL (≈ 6.26 µM)
31 | COC(=O)c1cc(NC(=O)NC23CC4CC(CC(C4)C2)C3)ccc1O | 1.1 µg/mL (≈ 3.19 µM)
32 | COC(=O)c1cccc(NC(=O)NC23CC4CC(CC(C4)C2)C3)c1 | 1.2 µg/mL (≈ 3.65 µM)
33 | CCCCCCCOCCNC(=O)NC12CC3CC(CC(C3)C1)C2 | 2.1 µg/mL (≈ 6.24 µM)
34 | COc1ccc(O[C@H]2CC[C@@H](NC(=O)NC34CC5CC(CC(C5)C3)C4)CC2)cc1 | > 80 µg/mL
35 | O=C(Nc1cccc(C(=O)NCCN2CCOCC2)c1)NC12CC3CC(CC(C3)C1)C2 | > 30 µg/mL
36 | O=C(NC12CC3CC(CC(C3)C1)C2)N[C@H]1CC[C@H](Oc2ccc(F)cc2)CC1 | > 39 µg/mL
37 | O=C(Nc1cccc(OCCCN2CCOCC2)c1)NC12CC3CC(CC(C3)C1)C2 | 32 µg/mL (≈ 77.4 µM)
38 | COc1ccccc1NC(=O)NC12CC3CC(CC(C3)C1)C2 | 30 µg/mL (≈ 99.9 µM)
39 | O=C(NC12CC3CC(CC(C3)C1)C2)N[C@H]1CC[C@H](Oc2ccc(Br)cc2)CC1 | > 89 µg/mL
40 | CCC(=O)Oc1cccc(NC(=O)NC23CC4CC(CC(C4)C2)C3)c1 | 17 µg/mL (≈ 49.6 µM)
41 | CCc1ccc(OCCOCCOCCCCCNC(=O)NC23CC4CC(CC(C4)C2)C3)cc1 | 24 µg/mL (≈ 50.8 µM)
42 | O=C(Nc1ccc(OC(=O)c2ccccc2)cc1)NC12CC3CC(CC(C3)C1)C2 | 39 µg/mL (≈ 99.9 µM)
43 | CC(=O)c1ccccc1NC(=O)NC12CC3CC(CC(C3)C1)C2 | > 3.1 µg/mL
44 | CC(=O)Nc1ccc(NC(=O)NC23CC4CC(CC(C4)C2)C3)cc1 | 65 µg/mL (≈ 199 µM)
45 | O=C(NCCCCOc1ccc(F)cc1)NC12CC3CC(CC(C3)C1)C2 | 2.25 µg/mL (≈ 6.24 µM)
46 | CC(=O)Oc1ccc(NC(=O)NC23CC4CC(CC(C4)C2)C3)cc1 | 66 µg/mL (≈ 201 µM)
47 | O=C(NC12CC3CC(CC(C3)C1)C2)N[C@H]1CC[C@H](OCc2ccc(Br)cc2)CC1 | > 92 µg/mL
48 | CC(C)Oc1cc(F)c(CO[C@H]2CC[C@@H](NC(=O)NC34CC5CC(CC(C5)C3)C4)CC2)c(F)c1 | 6.7 µg/mL (≈ 14.1 µM)

Row | SMILES | MIC
49 | O=C(NC12CC3CC(CC(C3)C1)C2)N[C@H]1CC[C@H](Oc2cccc(F)c2)CC1 | 14 µg/mL (≈ 36.2 µM)
50 | O=C(NC12CC3CC(CC(C3)C1)C2)N[C@H]1CC[C@H](O)CC1 | > 58 µg/mL
51 | O=C(Nc1ccc(OCCCCN2CCOCC2)cc1)NC12CC3CC(CC(C3)C1)C2 | 21 µg/mL (≈ 49.1 µM)
52 | CCOC(=O)C(C)Oc1ccc(NC(=O)NC23CC4CC(CC(C4)C2)C3)cc1 (stereo not given) | 19 µg/mL (≈ 49.2 µM)
53 | O=C(NC12CC3CC(CC(C3)C1)C2)N[C@H]1CC[C@H](Oc2cc(F)cc(F)c2)CC1 | > 41 µg/mL
54 | O=C(Nc1cccc(C(=O)N2CCC(N3CCOCC3)CC2)c1)NC12CC3CC(CC(C3)C1)C2 | > 93 µg/mL
55 | O=C(O)CCCc1ccc(NC(=O)NC23CC4CC(CC(C4)C2)C3)cc1 | 36 µg/mL (≈ 101 µM)
56 | O=C(NC12CC3CC(CC(C3)C1)C2)N[C@H]1CC[C@@H](Oc2ccc(F)cc2)CC1 | > 20 µg/mL
57 | CC(C)c1ccc(NC(=O)NC2CCCCC2)cc1 | 3.25 µg/mL (≈ 12.5 µM)
58 | COC(=O)c1ccc(NC(=O)NC23CC4CC(CC(C4)C2)C3)cc1 | 2 µg/mL (≈ 6.09 µM)
59 | CCC(=O)Oc1ccc(NC(=O)NC23CC4CC(CC(C4)C2)C3)cc1 | > 68 µg/mL
60 | O=C(Nc1ccccc1OCCCN1CCOCC1)NC12CC3CC(CC(C3)C1)C2 | 21 µg/mL (≈ 50.8 µM)
61 | O=C(Nc1cccc(Oc2ccc(F)cc2)c1)NC12CC3CC(CC(C3)C1)C2 | 2.5 µg/mL (≈ 6.57 µM)
62 | O=C(NC12CC3CC(CC(C3)C1)C2)N[C@H]1CC[C@H](OCC2CCCCC2)CC1 | > 78 µg/mL
63 | CC(C)Oc1cc(F)c(CO[C@H]2CC[C@H](NC(=O)NC34CC5CC(CC(C5)C3)C4)CC2)c(F)c1 | 11.9 µg/mL (≈ 25 µM)
64 | CN1CCN(CCCOc2ccc(NC(=O)NC34CC5CC(CC(C5)C3)C4)cc2)CC1 | 62 µg/mL (≈ 145 µM)
65 | O=C(Nc1ccc(Oc2ccc(F)cc2)cc1)NC12CC3CC(CC(C3)C1)C2 | 0.6 µg/mL (≈ 1.58 µM)
66 | O=C(NC12CC3CC(CC(C3)C1)C2)N[C@H]1CC[C@@H](Oc2cc(F)cc(F)c2)CC1 | 10 µg/mL (≈ 24.7 µM)
67 | O=C(Nc1ccc(OCCN2CCOCC2)cc1)NC12CC3CC(CC(C3)C1)C2 | > 30 µg/mL
68 | O=C(NC12CC3CC(CC(C3)C1)C2)N[C@H]1CC[C@H](OCc2ccccc2)CC1 | > 77 µg/mL
69 | O=C(Nc1cccc(OCCCCN2CCOCC2)c1)NC12CC3CC(CC(C3)C1)C2 | 21 µg/mL (≈ 49.1 µM)
70 | CC(C)(C)OC(=O)N1CCN(CCCOc2ccc(NC(=O)NC34CC5CC(CC(C5)C3)C4)cc2)CC1 | 6.21 µg/mL (≈ 12.1 µM)
71 | O=C(NC12CC3CC(CC(C3)C1)C2)N[C@H]1CC[C@H](OCCCN2CCOCC2)CC1 | > 42 µg/mL
72 | O=C(Nc1ccc(C(=O)O)cc1)N[C@H]1CC[C@@H](Oc2ccc(F)cc2)CC1 | 4.65 µg/mL (≈ 12.5 µM)

Each compound was assayed against T1, Bifunctional epoxide hydrolase 2 (Homo sapiens, UniProt P34913) (assay: not given). Settings: not given.
T1 sequence (P34913 whole entry): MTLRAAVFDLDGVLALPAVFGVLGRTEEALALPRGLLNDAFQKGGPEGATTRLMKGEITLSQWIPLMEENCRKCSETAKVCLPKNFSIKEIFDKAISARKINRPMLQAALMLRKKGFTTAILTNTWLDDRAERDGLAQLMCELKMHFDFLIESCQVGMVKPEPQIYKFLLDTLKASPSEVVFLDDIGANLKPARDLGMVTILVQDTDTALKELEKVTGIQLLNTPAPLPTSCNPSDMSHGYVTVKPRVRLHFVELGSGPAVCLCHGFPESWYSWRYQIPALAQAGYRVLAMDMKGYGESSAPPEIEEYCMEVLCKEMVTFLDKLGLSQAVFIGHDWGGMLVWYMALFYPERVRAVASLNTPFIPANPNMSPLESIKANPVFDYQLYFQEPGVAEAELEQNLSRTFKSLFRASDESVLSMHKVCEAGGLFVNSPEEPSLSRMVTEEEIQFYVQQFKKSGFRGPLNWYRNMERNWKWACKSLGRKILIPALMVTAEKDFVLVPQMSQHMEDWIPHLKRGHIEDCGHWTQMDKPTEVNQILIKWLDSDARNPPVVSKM

Row | SMILES | IC50
73 | C=C(CCCNC(=O)NC12CC3CC(CC(C3)C1)C2)OCCOCCOCC | 67 nM
74 | O=C(Nc1cccc(OC(F)(F)F)c1)NC12CC3CC(CC(C3)C1)C2 | 3.1 nM
75 | O=C(Nc1ccc(N2CCOCC2)cc1)NC12CC3CC(CC(C3)C1)C2 | 5.2 nM
76 | O=C(NCCCCCOCCOCCOCc1ccccc1)NC12CC3CC(CC(C3)C1)C2 | 10.8 nM
77 | O=C(NC12CC3CC(CC(C3)C1)C2)N[C@H]1CC[C@@H](Oc2ccc(C(F)(F)F)cn2)CC1 | 1.8 nM
78 | O=C(Nc1cccc(OC(F)F)c1)NC12CC3CC(CC(C3)C1)C2 | 2.6 nM
79 | CC(=O)c1ccc(NC(=O)NC23CC4CC(CC(C4)C2)C3)cc1 | 6.3 nM
80 | COC(=O)Cc1ccc(NC(=O)NC23CC4CC(CC(C4)C2)C3)cc1 | 4.4 nM
